In patent US11840527B2, “Non-fused thiophene derivatives and their uses” (ENYO PHARMA, priority 2018, dated 2023):

Tested on: H1N1 (influenza A/New Caledonia/20/99)
Assay: Antiviral effect on A549 cells infected with H1N1
Type: cell-based, H1N1 A/New Caledonia/20/99 virus
Details: Influenza A virus, MOI 0.1, 48 h post-infection, MUNANA neuraminidase readout
Method: The antiviral effect of the compounds of the invention have been tested on A549 cell lines infected with H1N1 (influenza A/New Caledonia/20/99).
Human A549 cells (80,000 cells/well in a 96 well plate) were treated with a range of concentration of test compounds and immediately infected by H1N1 A/New Caledonia/20/99 virus (clinical isolate) at MOI of 0.1 in DMEM/1% Penicillin/streptomycin supplemented with […] TPCK trypsin (Sigma) and incubated at 37° C. in 5% CO2. 48 h post-infection, supernatants (25 μl) were collected and transferred into a 96-well black flat-bottom plate, mixed with 25 μl PBS with Ca++/Mg++ (Thermo Fisher) and 50 μl of 2′-(4-Methylumbelliferyl)-ax-D-N-acetylneuraminic acid sodium salt hydrate stock-solution (20 μM, MUNANA, Sigma). Plates were incubated 1h at 37° C. and reaction is stopped by adding 100 μl of Stop Solution (glycine 0.1 M pH10.7/25% ethanol). The amount of fluorescent product released by MUNANA hydrolysis (4-MU) was measured in a Tecan spectrophotometer with excitation and emission wavelengths of 365 and 450 nm respectively.

Compound	IC50
Cc1sc(NC(=O)c2ccccc2)c(C(=O)O)c1-c1ccc(Cl)cc1 [Compound #4, 2-Benzamido-4-(4-chlorophenyl)-5-methyl-thiophene-3-carboxylic acid]	170 nM
Cc1sc(NC(=O)c2ccc(OC(F)F)cc2)c(C(=O)O)c1-c1ccc(Cl)cc1 [Compound #5, 4-(4-Chlorophenyl)-2-[[4-(difluoromethoxy)benzoyl]amino]-5-methyl-thiophene-3-carboxylic acid]	260 nM
O=C(Nc1sc(Cl)c(-c2ccc(Cl)c(F)c2)c1C(=O)O)c1ccccc1 [Compound #6, 2-Benzamido-5-chloro-4-(4-chloro-3-fluoro-phenyl)thiophene-3-carboxylic acid]	247 nM
O=C(Nc1scc(C2CCCC2)c1C(=O)O)c1ccccc1 [Compound #10, 2-Benzamido-4-cyclopentyl-thiophene-3-carboxylic acid]	205 nM
O=C(Nc1scc(C2CCCCC2)c1C(=O)O)c1ccc(OC(F)F)cc1 [Compound #11, 4-Cyclohexyl-2-[[4-(difluoromethoxy)benzoyl]amino]thiophene-3-carboxylic acid]	412 nM
O=C(Nc1sc(Cl)c(C2CCCCC2)c1C(=O)O)c1ccccc1 [Compound #12, 2-Benzamido-5-chloro-4-cyclohexyl-thiophene-3-carboxylic acid]	245 nM
O=C(Nc1sc(Cl)c(C2CCCCC2)c1C(=O)O)c1ccc(OC(F)F)cc1 [Compound #13, 5-Chloro-4-cyclohexyl-2-[[4-(difluoromethoxy)benzoyl]amino]thiophene-3-carboxylic acid]	370 nM
Cc1ccccc1C(=O)Nc1sc(Cl)c(C2CCCCC2)c1C(=O)O [Compound #14, 5-Chloro-4-cyclohexyl-2-[(2-methylbenzoyl)amino]thiophene-3-carboxylic acid]	500 nM
O=C(Nc1sc(Cl)c(C2CCCCC2)c1C(=O)O)c1ccc(N2CCOCC2)cc1 [Compound #15, 5-Chloro-4-cyclohexyl-2-[(4-morpholinobenzoyl)amino]thiophene-3-carboxylic acid]	225 nM
O=C(Nc1scc(-c2ccc(C(F)(F)F)cc2)c1C(=O)O)c1ccccc1 [Compound #20, 2-Benzamido-4-[4-(trifluoromethyl)phenyl]thiophene-3-carboxylic acid]	310 nM
Cc1ccc(-c2csc(NC(=O)c3ccccc3)c2C(=O)O)cc1 [Compound #21, 2-Benzamido-4-(p-tolyl)thiophene-3-carboxylic acid]	610 nM
Cc1ccc(-c2csc(NC(=O)c3ccccc3)c2C(=O)O)cc1C [Compound #22, 2-Benzamido-4-(3,4-dimethylphenyl)thiophene-3-carboxylic acid]	550 nM
Cc1ccc(-c2c(Cl)sc(NC(=O)c3ccccc3)c2C(=O)O)cc1C [Compound #23, 2-Benzamido-5-chloro-4-(3,4-dimethylphenyl)thiophene-3-carboxylic acid]	420 nM
Cc1ccc(-c2c(Cl)sc(NC(=O)c3ccccc3)c2C(=O)O)cc1 [Compound #24, 2-Benzamido-5-chloro-4-(p-tolyl)thiophene-3-carboxylic acid]	350 nM
COc1ccc(C(=O)Nc2scc(C3CCCCC3)c2C(=O)O)cc1OC [Compound #25, 4-Cyclohexyl-2-[(3,4-dimethoxybenzoyl)amino]thiophene-3-carboxylic acid]	729 nM
Cc1sc(NC(=O)c2ccccc2)c(C(=O)O)c1C1CCCCC1 [Compound #27, 2-Benzamido-4-cyclohexyl-5-methyl-thiophene-3-carboxylic acid]	880 nM
O=C(Nc1scc(-c2ccccc2)c1C(=O)O)c1ccc(OC(F)F)cc1 [Compound #28, 2-[[4-(Difluoromethoxy)benzoyl]amino]-4-phenyl-thiophene-3-carboxylic acid]	1270 nM
O=C(Nc1scc(C2CCCCC2)c1C(=O)O)c1ccc(N2CCOCC2)cc1 [Compound #29, 4-Cyclohexyl-2-[(4-morpholinobenzoyl)amino]thiophene-3-carboxylic acid]	1270 nM
Cc1sc(NC(=O)c2ccc(OC(F)F)cc2)c(C(=O)O)c1-c1ccccc1 [Compound #30, 2-[[4-(Difluoromethoxy)benzoyl]amino]-5-methyl-4-phenyl-thiophene-3-carboxylic acid]	1370 nM
O=C(Nc1sc(Cl)c(-c2ccccc2)c1C(=O)O)c1ccc(OC(F)F)cc1 [Compound #31, 5-Chloro-2-[[4-(difluoromethoxy)benzoyl]amino]-4-phenyl-thiophene-3-carboxylic acid]	1370 nM
CC(C)(C)c1csc(NC(=O)c2ccccc2)c1C(=O)O [Compound #32, 2-Benzamido-4-tert-butyl-thiophene-3-carboxylic acid]	1470 nM

Compound	IC50
O=C(Nc1sc(Cl)c(-c2ccccc2)c1C(=O)O)c1ccccc1 [Compound #33, 2-Benzamido-5-chloro-4-phenyl-thiophene-3-carboxylic acid]	1470 nM
Cc1sc(NC(=O)c2ccccc2)c(C(=O)O)c1-c1ccccc1 [Compound #34, 2-Benzamido-5-methyl-4-phenyl-thiophene-3-carboxylic acid]	1480 nM
O=C(Nc1scc(C2CC(F)(F)C2)c1C(=O)O)c1ccccc1 [Compound #35, 2-Benzamido-4-(3,3-difluorocyclobutyl)thiophene-3-carboxylic acid]	1670 nM
O=C(Nc1scc(-c2cccc(Cl)c2)c1C(=O)O)c1ccccc1 [Compound #36, 2-Benzamido-4-(3-chlorophenyl)thiophene-3-carboxylic acid]	1670 nM
O=C(Nc1scc(C2C3CCCCC32)c1C(=O)O)c1ccccc1 (stereo not drawn) [Compound #37, 2-Benzamido-4-norcaran-7-yl-thiophene-3-carboxylic acid]	1870 nM
COc1ccc(-c2csc(NC(=O)c3ccccc3)c2C(=O)O)cc1 [Compound #38, 2-Benzamido-4-(4-methoxyphenyl)thiophene-3-carboxylic acid]	1870 nM
CC1(C)C(c2csc(NC(=O)c3ccccc3)c2C(=O)O)C1(C)C [Compound #39, 2-Benzamido-4-(2,2,3,3-tetramethylcyclopropyl)thiophene-3-carboxylic acid]	2370 nM
O=C(Nc1sc(C2CCCCC2)cc1C(=O)O)c1ccc(OC(F)F)cc1 [Compound #41, 5-Cyclohexyl-2-[[4-(difluoromethoxy)benzoyl]amino]thiophene-3-carboxylic acid]	2570 nM
O=C(Nc1scc(-c2ccccc2)c1C(=O)O)c1ccccc1 [Compound #43, 2-Benzamido-4-phenyl-thiophene-3-carboxylic acid]	5950 nM
O=C(Nc1scc(-c2ccccc2Cl)c1C(=O)O)c1ccccc1 [Compound #44, 2-Benzamido-4-(2-chlorophenyl)thiophene-3-carboxylic acid]	6650 nM
Cc1ccccc1C(=O)Nc1sc(-c2ccccc2)cc1C(=O)O [Compound #45, 2-[(2-Methylbenzoyl)amino]-5-phenyl-thiophene-3-carboxylic acid]	8550 nM
COc1ccc(C(=O)Nc2scc(-c3ccccc3)c2C(=O)O)cc1OC [Compound #46, 2-[(3,4-Dimethoxybenzoyl)amino]-4-phenyl-thiophene-3-carboxylic acid]	9650 nM
CC(C)(C)[C@H]1CC[C@H](c2csc(NC(=O)c3ccccc3)c2C(=O)O)CC1 [Compound #48, 2-Benzamido-4-(trans-4-tert-butylcyclohexyl)thiophene-3-carboxylic acid]	350 nM
O=C(Nc1sc(Cl)c(-c2ccc(C(F)(F)F)cc2)c1C(=O)O)c1ccccc1 [Compound #50, 2-Benzamido-5-chloro-4-[4-(trifluoromethyl)phenyl]thiophene-3-carboxylic acid]	320 nM
CC(C)(C)[C@H]1CC[C@@H](c2csc(NC(=O)c3ccccc3)c2C(=O)O)CC1 [Compound #54, 2-Benzamido-4-(cis-4-tert-butylcyclohexyl)thiophene-3-carboxylic acid]	460 nM
O=C(Nc1scc(C2CCCC2)c1C(=O)O)c1ccc(N2CCOCC2)cc1 [Compound #59, 4-Cyclopentyl-2-[(4-morpholinobenzoyl)amino]thiophene-3-carboxylic acid]	75 nM
O=C(Nc1scc(C2CCCC2)c1C(=O)O)c1ccc(NC2CCOCC2)cc1 [Compound #60, 4-Cyclopentyl-2-[[4-(tetrahydropyran-4-ylamino)benzoyl]amino]thiophene-3-carboxylic acid]	47 nM
COCCNc1ccc(C(=O)Nc2scc(C3CCCC3)c2C(=O)O)cc1 [Compound #61, 4-Cyclopentyl-2-[[4-(2-methoxyethylamino)benzoyl]amino]thiophene-3-carboxylic acid]	100 nM
COC1CN(c2ccc(C(=O)Nc3scc(C4CCCC4)c3C(=O)O)cc2)C1 [Compound #62, 4-Cyclopentyl-2-[[4-(3-methoxyazetidin-1-yl)benzoyl]amino]thiophene-3-carboxylic acid]	52 nM
O=C(Nc1scc(C2CC(c3ccccc3)C2)c1C(=O)O)c1ccccc1 (stereo not drawn) [Compound #63, 2-Benzamido-4-(3-phenylcyclobutyl)thiophene-3-carboxylic acid]	150 nM
O=C(Nc1scc(C2CCCC2)c1C(=O)O)c1ccc(NCC2CCOCC2)cc1 [Compound #66, 4-Cyclopentyl-2-[[4-(tetrahydropyran-4-ylmethylamino)benzoyl]amino]thiophene-3-carboxylic acid]	15 nM
